According to paper PMC9568543, “Bee-safe peptidomimetic acaricides achieved by comparative genomics” (Scientific Reports, 2022):
Where “and” joins values, the source holds several entries; their conditions need not be identical. Identical values can stand only once. Where a SMILES comes first, the peptide text is derived from it. Where no end group is shown, it is not given here. [ ]: non-standard residue; d: D form. Phe(4-NO2) = N[C@@H](Cc1ccc([N+](=O)[O-])cc1)C(=O)O; Oic = O=C(O)[C@@H]1C[C@@H]2CCCC[C@@H]2N1; Phe(4-Cl) = N[C@@H](Cc1ccc(Cl)cc1)C(=O)O; Phe(4-F) = N[C@@H](Cc1ccc(F)cc1)C(=O)O; Hyp = O=C(O)[C@@H]1C[C@@H](O)CN1; β3hF = N[C@H](CC(=O)O)Cc1ccccc1; β3hL = CC(C)C[C@H](N)CC(=O)O; β3hP = O=C(O)C[C@@H]1CCCN1

Experiments:
[1] = biological target: T1, Varroa mite proctolin receptor (VdProctR) (Varroa destructor, UniProt A0A7T1TE40); experiment: Receptor activity assay, CHO cell line stably expressing the receptor, second set of ligands; type: cell-based; details: for Fold change: EC50 relative to proctolin, second set (stable expression)
Protocol: (§1) Approximately thirty hours after transfection, the cells were collected and preincubated with coelenterazine h for the functional assay, as previously described[30],[31],[52]. The ligands in serial dilutions were loaded into 96-well opaque plates. Cells treated with coelenterazine h were injected into each well on an Orion microplate luminometer (Berthold) luminescent plate reader. The luminescence was measured for 20 s immediately after the cell injections. Data analyses were performed to determine the accumulated luminescence value for 20 s after extraction of blank-well luminescence. […] The three biological replications were regressed for the dose–response curves with 95% confidence intervals (Table 1). For the tests of the second set of ligands, we used the cell line that stably expressed VdProctR, which were selected by Zeocin for 5 passages.

worker honey bee = experiment: Acute toxicity on worker honey bee by injection, 24 h; details: 50 nL of 200 µM (10 pmol), 24 h observation, n = 4
Protocol: For honey bee (Apis mellifera) assays, honey bee workers from healthy colonies were collected from Honeybee Valley of Ghent University, Belgium, and maintained in cages on sugar dough and water, under standardized conditions of 28–30 °C, 60–65% air humidity and continuous darkness. The colony were maintained with a periodic sanitary control that the honeybee hives are free of pathogens, diseases and viruses. There was no Varroa mite infection in the honeybee hives at the moment of collecting the workers for the assays. […] This was realized by injecting a volume of 50 nL of a concentration of the compound of 200 µM. Potential effects on survival were scored at 24 h after injection. […] This test was done with the following compounds were tested: 2439, 2334, 2336, Ac-2442 and controls. Subsequently, working solutions were freshly prepared prior to the bioassays by diluting the stock with distilled water to the required concentration.

[2] = biological target: T1, Varroa mite proctolin receptor (VdProctR); experiment: Receptor activity assay (aequorin luminescence), CHO cells transiently expressing the receptor, first set of ligands; type: cell-based; details: for efficacy (maximal response) compared with proctolin: activities at 1 μM and 10 μM; for EC50: cells with transient expression of the receptor; for Fold change: EC50 relative to proctolin, first set (transient expression); for potency of double-replacement analog over the corresponding single Y2 replacement analog (factor): 2338 vs 2333, 2337 vs 2329
Protocol: as §1

[3] = system: proctolin myotropic assays in cockroach, locust and beetle species; details: cited from earlier work

T1 sequence (A0A7T1TE40 entry or part of it): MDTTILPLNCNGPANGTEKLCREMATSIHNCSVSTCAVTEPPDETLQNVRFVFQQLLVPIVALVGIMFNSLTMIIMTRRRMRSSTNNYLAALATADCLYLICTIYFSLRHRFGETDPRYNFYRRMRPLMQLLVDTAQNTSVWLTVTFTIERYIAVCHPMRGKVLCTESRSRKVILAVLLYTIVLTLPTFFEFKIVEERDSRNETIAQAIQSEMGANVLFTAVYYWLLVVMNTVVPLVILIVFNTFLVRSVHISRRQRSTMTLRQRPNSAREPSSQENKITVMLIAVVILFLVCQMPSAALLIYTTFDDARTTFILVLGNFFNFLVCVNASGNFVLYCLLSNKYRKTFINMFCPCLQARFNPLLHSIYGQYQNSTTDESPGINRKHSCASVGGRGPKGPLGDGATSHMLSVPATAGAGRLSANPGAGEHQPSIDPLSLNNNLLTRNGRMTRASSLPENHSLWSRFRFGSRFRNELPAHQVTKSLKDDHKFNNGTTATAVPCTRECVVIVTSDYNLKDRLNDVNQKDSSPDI

Compound: CC(=O)N[C@@H](CCCNC(=N)N)C(=O)N[C@@H](Cc1ccc(F)cc1)C(=O)N[C@@H](CC(C)C)C(=O)N1C[C@H](O)C[C@H]1C(=O)N[C@H](C(=O)O)[C@@H](C)O [Ac-2441, Ac-R[Phe(4-F)]L[HyP]T] (Ac-R[Phe(4-F)]L[Hyp]T-OH; N-terminus and C-terminus assumed)
- Fold change [1]: 61.5

Compound: CC(=O)N[C@@H](CCCNC(=N)N)C(=O)N[C@@H](Cc1ccc([N+](=O)[O-])cc1)C(=O)N[C@@H](CC(C)C)C(=O)N1C[C@H](O)C[C@H]1C(=O)N[C@H](C(=O)O)[C@@H](C)O [Ac-2442, Ac-R[Phe(4-NO2)]L[HyP]T] (Ac-R[Phe(4-NO2)]L[Hyp]T-OH)
- negative effects after injection into thorax (worker honey bee): did not show any negative effects

Compound: RYL[β3P]T [Analog 2331] (H-RYL[β3hP]T-OH; N-terminus and C-terminus assumed; SMILES CC(C)C[C@H](NC(=O)[C@H](Cc1ccc(O)cc1)NC(=O)[C@@H](N)CCCNC(=N)N)C(=O)N1CCC[C@H]1CC(=O)N[C@H](C(=O)O)[C@@H](C)O)
- efficacy (maximal response) compared with proctolin [2]: higher than that of proctolin

Compound: CC(C)C[C@H](NC(=O)[C@H](Cc1ccc(F)cc1)NC(=O)[C@@H](N)CCCNC(=N)N)C(=O)N1C[C@H](O)C[C@H]1C(=O)N[C@H](C(=O)O)[C@@H](C)O [Analog 2441, R[Phe(4-F)]L[HyP]T] (H-R[Phe(4-F)]L[Hyp]T-OH; N-terminus and C-terminus assumed)
- Fold change [1]: 0.7
- activity compared with proctolin ([1]; second set, stable expression): higher activity than proctolin

Compound: CC(C)C[C@H](NC(=O)[C@H](Cc1ccc(F)cc1)NC(=O)[C@@H](N)CCCNC(=N)N)C(=O)N1CCC[C@H]1C(=O)N[C@H](C(=O)O)[C@@H](C)O [Analog 2438, R[Phe(4-F)]LPT] (H-R[Phe(4-F)]LPT-OH)
- EC50 [1]: 0.0167 µM
- Fold change [1]: 0.7

Compound: CC(C)C[C@H](NC(=O)[C@H](Cc1ccc(O)cc1)NC(=O)[C@H](N)CCCNC(=N)N)C(=O)N1CCC[C@H]1C(=O)N[C@H](C(=O)O)[C@@H](C)O [Analog 2330, [dR]YLPT] (H-[dR]YLPT-OH; N-terminus and C-terminus assumed)
- efficacy (maximal response) compared with proctolin [2]: higher than that of proctolin
- EC50 ([2]; first set of peptidomimetics, listed as R1 replacement by dR, read-out: EC50): 0.00562 µM
- activity in earlier in vivo myotropic bioassays [3]: no activity

Compound: CC(C)C[C@H](NC(=O)[C@H](Cc1ccc(O)cc1)NC(=O)[C@@H](N)CCCNC(=N)N)C(=O)N1CCC[C@@H]1C(=O)N[C@H](C(=O)O)[C@@H](C)O [Analog 2327, RYL[dP]T] (H-RYL[dP]T-OH; N-terminus and C-terminus assumed)
- Fold change [2]: 1881.1

Compound: CC(C)C[C@H](NC(=O)[C@@H](Cc1ccc(O)cc1)NC(=O)[C@@H](N)CCCNC(=N)N)C(=O)N1[C@H](C(=O)N[C@H](C(=O)O)[C@@H](C)O)C[C@@H]2CCCC[C@@H]21 [Analog 2340, R[dY]L[Oic]T] (H-R[dY]L[Oic]T-OH)
- Fold change [2]: 529.7

Compound: CC(=O)N[C@@H](CCCNC(=N)N)C(=O)N[C@@H](Cc1ccc(Cl)cc1)C(=O)N[C@@H](CC(C)C)C(=O)N1C[C@H](O)C[C@H]1C(=O)N[C@H](C(=O)O)[C@@H](C)O [Ac-2443, Ac-R[Phe(4-Cl)]L[HyP]T] (Ac-R[Phe(4-Cl)]L[Hyp]T-OH)
- Fold change [1]: 37.5

Compound: RYGLPT [Analog G3, RYGLPT]
- Fold change [2]: 91508.8

Compound: RYLPTG [Analog G6, RYLPTG]
- Fold change [2]: 4088.2
- efficacy (maximal response) compared with proctolin [2]: higher than that of proctolin

Compound: GRYLPT [Analog G1, GRYLPT]
- Fold change [2]: 199.7

Compound: CC(C)C[C@H](NC(=O)C[C@H](Cc1ccccc1)NC(=O)[C@@H](N)CCCNC(=N)N)C(=O)N1C[C@H](O)C[C@H]1C(=O)N[C@H](C(=O)O)[C@@H](C)O [Analog 2338, R[β3F]L[HyP]T] (H-R[β3hF]L[Hyp]T-OH)
- efficacy (maximal response) [2]: full efficacy
- potency of double-replacement analog over the corresponding single Y2 replacement analog (factor) [2]: 8
- EC50 ([2]; EC50, first set of peptidomimetics): 0.033 µM and 0.0332 µM
- Fold change [2]: 136.1

Compound: CC(C)C[C@H](NC(=O)[C@H](Cc1ccc(Cl)cc1)NC(=O)[C@@H](N)CCCNC(=N)N)C(=O)N1CCC[C@H]1C(=O)N[C@H](C(=O)O)[C@@H](C)O [Analog 2440, R[Phe(4-Cl)]LPT] (H-R[Phe(4-Cl)]LPT-OH)
- EC50 [1]: 0.00573 µM
- Fold change [1]: 0.2

Compound: CC(C)C[C@@H](NC(=O)[C@H](Cc1ccc(O)cc1)NC(=O)[C@@H](N)CCCNC(=N)N)C(=O)N1CCC[C@H]1C(=O)N[C@H](C(=O)O)[C@@H](C)O [Analog 2328, RY[dL]PT] (H-RY[dL]PT-OH; N-terminus and C-terminus assumed)
- Fold change [2]: 558.8

Compound: CC(C)C[C@H](NC(=O)C[C@H](Cc1ccccc1)NC(=O)[C@@H](N)CCCNC(=N)N)C(=O)N1CCC[C@H]1C(=O)N[C@H](C(=O)O)[C@@H](C)O [Analog 2333, R[β3F]LPT] (H-R[β3hF]LPT-OH)
- Fold change [2]: 572.0

Compound: CC(C)C[C@H](NC(=O)[C@@H](Cc1ccc(O)cc1)NC(=O)[C@@H](N)CCCNC(=N)N)C(=O)N1C[C@H](O)C[C@H]1C(=O)N[C@H](C(=O)O)[C@@H](C)O [Analog 2337, R[dY]L[HyP]T] (H-R[dY]L[Hyp]T-OH; N-terminus and C-terminus assumed)
- efficacy (maximal response) [2]: full efficacy
- potency of double-replacement analog over the corresponding single Y2 replacement analog (factor) [2]: 4
- Fold change [2]: 143.5

Compound: RYLPGT [Analog G5, RYLPGT]
- Fold change [2]: 3095.5

Compound: CC(C)C[C@@H](CC(=O)N1CCC[C@H]1C(=O)N[C@H](C(=O)O)[C@@H](C)O)NC(=O)[C@H](Cc1ccc(O)cc1)NC(=O)[C@@H](N)CCCNC(=N)N [Analog 2332, RY[β3L]PT] (H-RY[β3hL]PT-OH)
- Fold change [2]: 661.7

Compound: CC(C)C[C@H](NC(=O)[C@H](Cc1ccc([N+](=O)[O-])cc1)NC(=O)[C@@H](N)CCCNC(=N)N)C(=O)N1CCC[C@H]1C(=O)N[C@H](C(=O)O)[C@@H](C)O [Analog 2439, R[Phe(4-NO2)]LPT] (H-R[Phe(4-NO2)]LPT-OH)
- negative effects after injection into thorax (worker honey bee): did not show any negative effects

Compound: RYLGPT [Analog G4, RYLGPT]
- Fold change [2]: 5444.9

Compound: RGYLPT [Analog G2, RGYLPT]
- Fold change [2]: 71648.2

Compound: CC(C)C[C@H](NC(=O)[C@H](Cc1ccc(O)cc1)NC(=O)[C@@H](N)CCCNC(=N)N)C(=O)N1CCC[C@H]1C(=O)N[C@@H](C(=O)O)[C@H](C)O [Analog 2326, RYLP[dT]] (H-RYLP[dT]-OH; N-terminus and C-terminus assumed)
- Fold change [2]: 7654.8

Compound: CC(C)C[C@H](NC(=O)[C@@H](Cc1ccc(O)cc1)NC(=O)[C@@H](N)CCCNC(=N)N)C(=O)N1CCC[C@H]1C(=O)N[C@H](C(=O)O)[C@@H](C)O [Analog 2329, R[dY]LPT] (H-R[dY]LPT-OH; N-terminus and C-terminus assumed)
- Fold change [2]: 824.5

Compound: RYL[HyP]T [Analog 2334] (H-RYL[Hyp]T-OH; N-terminus and C-terminus assumed; SMILES CC(C)C[C@H](NC(=O)[C@H](Cc1ccc(O)cc1)NC(=O)[C@@H](N)CCCNC(=N)N)C(=O)N1C[C@H](O)C[C@H]1C(=O)N[C@H](C(=O)O)[C@@H](C)O)
- efficacy (maximal response) compared with proctolin [2]: higher than that of proctolin
